This is an account of results in patent US20080131432A1, “Method of treating the chemotoxic effects of chemotherapeutic drugs on brain tissue” (University of Kentucky Research Foundation, priority 2005, published 2008).

“Also recorded” adds a separate entry of the source.

The test system of one data set is TNF α. As to the kind of experiment: TNF α levels in serum (mouse TNF-α ELISA). The class given is in vivo. How it is done:
Mice were treated with 20 mg/kg ADR or saline as control. Blood samples were collected at 1, 3, 6, 9, 24 hours and allowed to clot at 2-8° C. overnight. Serum samples were used to measure TNF α levels, according to the mouse enzyme-linked immunosorbent assay following the manufacturers' instructions (mouse TNF-α/TNFSF1A immunoassay, R&D Systems, Minneapolis, MN). The TNF α concentration in the sample was calculated from a recombinant mouse TNF α standard curve. The minimum detection limit is typically less than 5.1 pg/mL.
8-week-old male B6C3 mice (25-30 g) were kept under standard conditions. Mice were injected with a single intraperitoneal (i.p.) treatment with adriamycin (doxorubicin hydrochloride, 20 mg/kg), TNF-α, anti-mouse TNF-antibody (40 ng/kg), dipropylenetriamine NONOate (DPTA NONOate, […]), lipopolysaccharide (LPS 1 mg/kg), NG-nitro-L-arginine-methyl esther (L-NAME, 10 mg/kg) or pre-immune IgG.
Mice were treated with 20 mg/kg ADR, TNF-α, anti-mouse TNF-antibody, dipropylenetriamine NONOate, lipopolysaccharide, NG-nitro-L-arginine-methyl esther or pre-immune IgG, as well as saline as control. Blood samples were collected at 3 hours after ADR treatment and allowed to clot at 2-8° C. overnight. Serum samples were used to measure TNF levels, according to the mouse enzyme-linked immunosorbent assay following the manufacturers' instructions (mouse TNF-α/TNFSF1A immunoassay, R&D Systems, Minneapolis, Minn.). The TNF concentration in the sample was calculated from a recombinant mouse TNF standard curve. The minimum detection limit is typically less than 5.1 pg/mL.
Background: In an ELISA, binding on a coated surface is turned into a signal by an enzyme label.

In data set [1] the test system is mitochondrial respiration complex I. Kind of data set: Brain mitochondrial respiration, complex I (pyruvate + malate), respiration control ratio. As to conditions: iNOSKO mice, 3 hours after treatment.
Experimental: Mice were perfused via cardiac puncture with cold mitochondrial isolation buffer, the brain promptly removed, the cerebellum dissected away, and mitochondria immediately isolated from the freshly brain by a modification of the method described by Mattiazzi et al. (2002). Brain mitochondria were isolated in cold mitochondrial isolation buffer, containing 0.07 M sucrose, 0.22 M mannitol, 20 mM HEPES, 1 mM EGTA, and 1% bovine serum albumin, pH 7.2. Tissues were homogenized with a Dounce homogenizer and centrifuged at 1,500×g at 4° C. for 5 minutes before transferring the supernatant. The pellets were resuspended and centrifuged at 1,500×g at 4° C. for 5 minutes. The supernatants were combined and centrifuged at 13,500×g at 4° C. for 10 minutes. Mitochondrial pellets were washed twice and finally resuspended in 50-100 μL cold isolation buffer. Protein concentration of isolated mitochondria was determined by the Bradford assay (Bradford, 1976). The final protein concentration was 20-40 mg/ml.
Mitochondrial respiration was determined using Clark-type polarographic oxygen sensors (Hansatech Instruments, Kings Lynn, Norfolk, UK) to measure the rate of oxygen consumption. Freshly isolated mitochondria were suspended in respiration buffer at a concentration of 0.5 mg mitochondrial protein per mL of respiration buffer, which consists of 0.25 M sucrose, 50 mM HEPES, 1 mM EGTA, 10 mM KH2PO4, and 2 mM MgCl2, pH 7.4. Oxygen consumption was measured with either pyruvate (10 mM) plus malate (10 mM) or succinate (10 mM) as substrates for respiration from complex I or complex II in the absence of exogenous ADP (state II) and after addition of 300 mM ADP (state III respiration). Rotenone (5 μM) was added to the reaction to inhibit respiration from complex I when succinate was used as the substrate. […] FCCP (1 μM), an uncoupling agent, was added as a control of respiration. Respiration control ratios (RCR) were calculated as the ratios of state III and state II respiration as described previously by Estabrook (1967). The unit for state II rate and state III rate is nmole/min/mg protein.
Mice were perfused via cardiac puncture with cold mitochondrial isolation buffer, the brain promptly removed, the cerebellum dissected away, and mitochondria immediately isolated from the freshly brain by a modification of the method described by Mattiazzi et al. (2002). Brain mitochondria were isolated in cold mitochondrial isolation buffer, containing 0.07 M sucrose, 0.22 M mannitol, 20 mM HEPES, 1 mM EGTA, and 1% bovine serum albumin, pH 7.2. Tissues were homogenized with a Dounce homogenizer and centrifuged at 1,500×g at 4° C. for 3 minutes before transferring the supernatant fluid. The pellets were resuspended and centrifuged at 1,500×g at 4° C. for 3 minutes. The supernatant fluids were combined and centrifuged at 1,500×g at 4° C. for 3 minutes. These supernatant fluids were then centrifuged at 13,500×g at 4° C. for 10 minutes. Mitochondrial pellets were washed twice and finally resuspended in 50-100 μL cold isolation buffer. Protein concentration of isolated mitochondria was determined by the Bradford assay (Bradford, 1976).
Mitochondrial respiration was determined using Clark-type polarographic oxygen sensors (Hansatech Instruments, UK) to measure the rate of oxygen consumption. Freshly-isolated mitochondria were suspended in respiration buffer at a concentration of 0.5 mg mitochondrial protein/mL respiration buffer, which consisted of 0.25 M sucrose, 50 mM HEPES, 1 mM EGTA, 10 mM KH2PO4, 2 mM MgCl2 and 0.2% BSA, pH 7.4. Oxygen consumption was measured with either pyruvate (10 mM) or pyruvate plus malate (10 mM) as substrates for respiration from complex I, in the absence of exogenous ADP (state II), and after addition of 300 mM ADP (state III respiration). […] FCCP (1 μM), an uncoupling agent, was added as a control respiration. Respiration control ratios (RCR) were calculated as the ratios of state III and state II respiration.
Another data set deals with MnSOD. Particulars: wild-type mice.
The next data set has as its system iNOS mRNA. As to the kind of experiment: iNOS mRNA expression in brain tissues (RT-PCR). The class given is in vivo, mouse. Particulars: wild-type mice, 3 hours after treatment, vs saline controls. How it is done:
At 3 hours after treatment, mice were anesthetized and perfused via cardiac puncture with 0.1 M PBS, pH 7.4. The MRNA was isolated using the Micro-FastTrack 2.0 Kit (Invitrogen, Groningen, Netherlands) according to the manufacturer's instructions. The purified MRNA (5 μg) was subjected to reverse-transcription into first strand cDNA in each 20 μL of reaction mixture using the SuperScript III First-Strand Synthesis System for RT-PCR (Invitrogen) according to the manufacturer's instruction. A 25 μL PCR reaction contained 5 μL first strand cDNA, 0.1 U Taq DNA polymerase (Invitrogen), 10 mM 10×PCR buffer, 1.5 mM MgCl2, 2.5 mM dNTP and 10 pmol of each specific primer. PCR samples were subjected to the following conditions: 35 cycles for iNOS (94° C.: 1 minute; 65° C.: 1 minute; 72° C.: 1 minute), 32 cycles for β-actin (94° C.: […]; 55° C.: 30 s; 72° C.: 10 minutes), on a thermocycle (Perkin-Elmer). The primers with the target gene sequences were synthesized by Invitrogen. The primer sequence iNOS was 5′-CTGATGGTCAAGATCCAG-A-GGTCT-3′ (forward) and 5′-[…]-CTCT-3′(reverse), and the primer for β-actin was 5′-TGTTAC-CAACTGGGACGACA-3′ (forward) and 5′-CTGGGTCATCTT-TTCACCGT-3′ (reverse). After amplification, PCR products were subjected to 1% agarose gel electrophoresis, and visualized by ethidium bromide staining. The relative density of bands was analyzed under ultraviolet light (Bio-Rad). Experiments were repeated three times for reproducibility.

Consider `NCCCN(CCCN)/[N+]([O-])=N/O` [DPTA NONOate, dipropylenetriamine NONOate], for which, in the data set on TNF α (iNOSKO mice, 3 hours after treatment), the “TNF-α level in serum (circulating TNF-α)” value was “did not lead to changes; also recorded: had no effect”. Also, the “Brain mitochondrial respiration complex I (RCR)” value in data set [1] is “significantly lowered; also recorded: causes mitochondrial dysfunction”.

Consider `COC(=O)[C@@H](N)CCCNC(=N)N[N+](=O)[O-]` [L-NAME, NG-nitro-L-arginine-methyl esther], for which the “MnSOD activity in brain vs saline- or ADR-treated mice” value in the data set with MnSOD (L-NAME 10 mg/kg i.p.) is on record as “led to increased MnSOD activity”. The “Effect on ADR-induced MnSOD inactivation” value in the data set with MnSOD (L-NAME with ADR) is listed as “prevented MnSOD inactivation”.

In the case of TNF-α, the “iNOS mRNA levels in brain tissues” value in the data set with iNOS mRNA is “significantly increased”. Besides, in the data set with TNF α (wild-type mice, 3 hours after single i.p. treatment, vs saline control), the “TNF α level in serum (circulating TNF α)” value is given as “increased”.

In the case of lipopolysaccharide [LPS], the “iNOS mRNA levels in brain tissues” value in the data set on iNOS mRNA was “significantly increased”.
